Laboratory results: patent US9873705B2, “Vinylogous thioester compounds and methods of use” (THE TRUSTEES OF DARTMOUTH COLLEGE, priority 2015, dated 2018)

What was measured:
[1] = tested on: NF1 deficient cells compared to NF1 wild type cells; test: Bafilomycin A1 dose response curve; type: cell-based; details: representative of two replicates
Source text: This graph is representative of two replicates.

[2] = tested on: p62 and LC3B protein expression in U87-MG cells; test: Western blot of autophagy markers p62 and LC3B; type: cell-based, human; details: U87-MG, Western blot, 2 μM Y102, 50 μM HCQ
Source text: Ras dysregulated tumors depend on autophagy to remove damaged mitochondria and allow for their survival. […] LC3B I is lipidated to form LC3B II following induction of autophagy. LC3B II is recruited and subsequently integrated into the autophagosome. p62 functions as an adaptor protein in autophagy by binding to both ubiquitin-labeled damaged cargo such as protein aggregates or mitochondria and LC3B II to facilitate cargo uptake into the autophagosome. Degradation of the cargo occurs when the autophagosome fuses with the lysosome; when autophagy is inhibited with hydroxychloroquine (HCQ), a drug that prevents acidification of the lysosome, both LC3B II and p62 accumulate as derogation of the autophagosome is prevented, making them valuable markers of autophagic flux.
The data for FIG. 4 was obtained as follows: U87-MG cells were plated in 6-well plates at a concentration of 500,000 cells/well and allowed to adhere overnight. Cells were treated for 12 h with either DMSO or 2 μM Y102, followed by an additional 12 h co-treatment with or without 50 μM HCQ. Following treatment, cells were harvested using 0.25% trypsin, rinsed with PBS, and lysed with 75 μL modified RIPA buffer (50 mM NaCl, 1% v/v nonidet P40, 0.5% w/v sodium deoxycholate, 0.05% w/v sodium dodecyl sulfate, 50 mM Tris pH 8.0) containing 1 mM NaVO4, 1 mM NaF, 1 mM phenylmethylsulfonyl fluoride, 0.1 μg/mL leupeptin, 100 μM benzamidine HCl, 1 μM aprotinin, 0.1 μg/mL soybean trypsin inhibitor, 0.1 μg/mL pepstatin, and 0.1 μg/mL antipain. Protein was quantified using a BCA assay kit (Pierce). 40 μg of protein prepared in 1× Laemmli sample buffer (50 mM Tris pH 6.8, 0.02% w/v bromophenol blue, 2% w/v sodium dodecyl sulfate, 10% v/v glycerol, 1% v/v beta-mercaptoethanol, 12.5 mM EDTA) was separated on a 4-15% polyacrylamide gel using sodium dodecyl sulfate-polyacrylamide gel electrophoresis. Protein was transferred to nitrocellulose membrane, blocked in 5% nonfat milk in TBST, and probed with primary antibodies anti-LC3BI/II (Cell Signaling, 1:1000, overnight at 4° C.), anti-p62/SQSTM-1 D-3 (Santa Cruz, 1:1000, 1 h at room temperature), or anti-α-tubulin B-1-2-5 (Santa Cruz, 1:10000, 1 h at room temperature) in 2% nonfat milk in TBST. Blots were incubated in 1:20,000 anti-rabbit HRP or 1:10,000 anti-mouse HRP secondary antibodies diluted in 2% nonfat milk in TBST for 1 h at room temperature. Film was exposed to standard ECL (Pierce)-coated blots and developed using a standard film processor.

CO/C1=C\C(C)=C\[C@@H](C)[C@@H](O)[C@@H](C)C/C(C)=C/C=C/[C@H](OC)[C@@H]([C@@H](C)[C@@H](O)[C@H](C)[C@@]2(O)C[C@@H](O)[C@H](C)[C@@H](C(C)C)O2)OC1=O [Bafilomycin A1]
sensitivity of NF1 deficient vs NF1 wild type cells [1]: selectively sensitive

CCN(CCO)CCCC(C)Nc1ccnc2cc(Cl)ccc12 (stereo not drawn) [HCQ, hydroxychloroquine, reference compound]
p62 accumulation (autophagy marker) ([2]; 24 hours): accumulation of p62 | LC3B I/II conversion (LC3B II accumulation) ([2]; single agent): LC3B I/II conversion as seen
